Data from patent publication US11369565B2, “Amino-pyrimidine skeletal muscle modulators” (Cytokinetics, Inc., priority 2010, dated 2022).

System: rabbit skeletal myofibrils (approximately 90% fast fibers)
Assay: Activation of fast skeletal myofibrils (PUMA coupled-enzyme ATPase assay at pCa25)
Type: biochemical
Details: concentration at which the compound increased the enzymatic activity by 40%; calcium at pCa25; PM12 buffer pH 6.8
Procedure, shortened: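 In pH 6.8 PM12 buffer (12 mM Pipes, 2 mM MgCl2, 1 mM DTT), ADP from myosin regenerated via pyruvate kinase/lactate dehydrogenase, with absorbance change at 340 nm from NADH oxidation as read-out. Calcium set at pCa25; Triton-washed rabbit skeletal myofibrils (about 90% fast fibres) used.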

| Structure (SMILES) | Mean AC1.4 |
| --- | --- |
| O=C(Nc1cnc(NCC2(c3ncccc3F)CCC2)nc1)c1nccs1 [N-[2-(([(3-fluoro(2-pyridyl))cyclobutyl]methyl}amino)pyrimidin-5-yl]-1,3-thiazol-2-ylcarboxamide] | D (D=>20 uM) |
| CC(=O)Nc1n[nH]c2ccc(-c3cnc(NC(C)(C)c4ncccc4Cl)nc3)cc12 [N-[5-(2-{[1-(3-chloro(2-pyridyl))-isopropyl]amina}pyrimidin-5-yl)-1H-indazol-3-yl]acetamide] | B (B=1-10 uM) |
| O=C(NC1(c2ccc(F)cc2)CCC1)c1cnc(NC2(c3ccc(F)cc3)CCC2)nc1C(F)(F)F [N-[(4-fluorophenyl)cyclobutyl](2-{[(4-fluorophenyl)cyclobutyl]amino}-4-(trifluoromethyl)pyrimidin-5-yl)carboxamide] | D (D=>20 uM) |
| CCNC(=O)c1cnc(NCC2(c3ncccc3F)CCC2)nc1 [N-ethyl[2-({[(3-fluoro(2-pyridyl))cyclobutyl]methyl}amino)pyrimidin-5-yl] carboxamide] | D (D=>20 uM) |
| CC(=O)Nc1ccccc1-c1cnc(NC[C@]2(c3ncccc3F)C[C@H](F)C2)nc1 [N-{2-[2-({[3-fluoro-1-(3-fluoro(2-pyridyl))cyclobutyl]methyl}amino)pyrimidin-5-yl]phenyl}acetamide] | D (D=>20 uM) |
| CC(C)(C)OC(=O)NCCNC(=O)c1cnc(NCC2(c3ncccc3F)CCC2)nc1 [N-{2-[(tert-butoxy)carbonylamino]ethyl}[2-({[(3-fluoro(2-pyridyl))cyclobutyl]methyl}amino)pyrimidin-5-yl]carboxamide] | D (D=>20 uM) |
| CC(=O)NCc1cnn(-c2cnc(NC(C)(C)c3ncccc3Cl)nc2)c1 [N-{[1-(2-{[1-(3-chloro(2-pyridyl))-isopropyl]amino}pyrimidin-5-yl)pyrazol-4-yl)]methyl}acetamide] | D (D=>20 uM) |
| CC(=O)NCc1cnc(-c2cnc(NC(C)(C)c3ncccc3Cl)nc2)s1 [N-{[2-(2-{[1-(3-chloro(2-pyridyl))-isopropyl]amino)}pyrimidin-5-yl)-1,3-thiazol-5-yl]methyl]acetamide] | C (C=10-20 uM) |
| CC(C)(Nc1ncc(-c2ncc(CNC(=O)c3c[nH]c(O)n3)s2)cn1)c1ncccc1Cl [N-{[2-(2-{[1-(3-chloro(2-pyridyl))-isopropyl]amino}pyrimidin-5-yl)(1,3-thazol-5-yl)]methyl}(2-hydroxyimidazol-4-yl)carboxamide] | B (B=1-10 uM) |
| CC(C)(O)C(=O)NCc1cnc(-c2cnc(NC(C)(C)c3ncccc3Cl)nc2)s1 [N-{[2-(2-{[1-(3-chloro(2-pyridyl))-isopropyl}amino}pyrimidin-5-yl)(1,3-thiazol-5-yl)]methyl]-2-hydroxy-2-methylpropanamide] | C (C=10-20 uM) |
| CC(C)(Nc1ncc(-c2ncc(CNC(=O)c3cnc[nH]3)s2)cn1)c1ncccc1F [N-{[2-(2-{[1-(3-fluoro(2-pyridyl))-isopropyl]amino}pyrimidin-5-yl)(1,3-thiazol-5-yl)]methyl}imidazol-5-ylcarboxamide] | D (D=>20 uM) |
| CC(=O)NCc1cnc(-c2cnc(NC(C)(C)c3ncccc3F)nc2)s1 [N-{[2-(2-{[1-(3-fluoro(2-pyridyl))-isopropyl]amino}pyrimidin-5-yl)-1,3-thiazol-5-yl]methyl}acetamide] | D (D=>20 uM) |
| CC(C)(Nc1ncc(-c2ncc(CNC(=O)c3cnc(O)[nH]3)s2)cn1)c1ncccc1F [N-{[2-(2-{[1-(3-fluoro(2-pyridyl))-isopropyl}amino}pyrimidin-5-yl)(1,3-thiazol-5-yl)]methyl}(2-hydroxyimidazol-5-yl)carboxamide] | C (C=10-20 uM) |
| CC(=O)NCc1cccc(-c2cnc(NC(C)(C)c3ncccc3F)nc2)c1 [N-{[3-(2-{[1-(3-fluoro(2-pyridyl))-isopropyl]amino}pyrimidin-5-yl)phenyl]methyl}acetamide] | C (C=10-20 uM) |
| CC(=O)NCc1ccc(-c2cnc(NC(C)(C)c3ncccc3F)nc2)cc1 [N-{[4-(2-{[1-(3-fluoro(2-pyridyl))-isopropyl}amino}pyrimidin-5-yl)phenyl]methyl}acetamide] | D (D=>20 uM) |
| CC(C)(Nc1ncc(-n2cc(C(=O)NCCO)cn2)cn1)c1ncccc1Cl [[1-(2-{[1-(3-chloro(2-pyridyl))-isopropyl]amino}pyrimidin-5-yl)pyrazol-4-yl]-N-(2-hydroxyethyl)carboxamide] | D (D=>20 uM) |
| CC(C)(Nc1nccc(-c2nccs2)n1)c1ncccc1Cl [[1-(3-chloro(2-pyridyl))-isopropyl](4-(1,3-thiazol-2-yl)pyrimidin-2-yl)amine] | D (D=>20 uM) |
| CC(C)(Nc1ncc(-c2ncno2)cn1)c1ncccc1Cl [[1-(3-chloro(2-pyridyl))-isopropyl](5-(1,2,4-oxadiazol-5-yl)pyrimidin-2-yl)amine] | D (D=>20 uM) |
| CC(C)(Nc1ncc(-c2nccs2)cn1)c1ncccc1Cl [[1-(3-chloro(2-pyridyl))-isopropyl](5-(1,3-thiazol-2-yl)pyrimidin-2-yl)amine] | B (B=1-10 uM) |
| CC(C)(Nc1ncc(-c2cn[nH]c2)cn1)c1ncccc1Cl [[1-(3-chloro(2-pyridyl))-isopropyl](5-pyrazol-4-ylpyrimidin-2-yl)amine] | B (B=1-10 uM) |

| Structure (SMILES) | Mean AC1.4 |
| --- | --- |
| CC(C)(Nc1ncc(-c2cnc3cc[nH]c3c2)cn1)c1ncccc1Cl [[1-(3-chloro(2-pyridyl))-isopropyl](5-pyrrolo[3,2-b]pyridin-6-ylpyrimidin-2-yl)amine] | A (A=<1 uM) |
| CC(C)(Nc1ncccn1)c1ncccc1Cl [[1-(3-chloro(2-pyridyl))-isopropyl]pyrimidin-2-ylamine] | D (D=>20 uM) |
| CN1CCc2nc(NCC(C)(C)c3ccc(F)cc3)ncc2C1 [[2-(4-fluorophenyl)-2-methylpropyl](6-methyl (5,6,7,8-tetrahydropyridino [4,3-d]pyrimidin-2-yl))amine] | D (D=>20 uM) |
| CC(C)(CNc1ncc2c(n1)CCNC2)c1ccc(F)cc1 [[2-(4-fluorophenyl)-2-methylpropyl]-5,6,7,8-tetrahydropyridino[4,3-d]pyrimidin-2-ylamine] | D (D=>20 uM) |
| COCCNc1nc(NC[C@]2(c3ncccc3F)C[C@H](F)C2)ncc1-c1ccccc1 [[2-({[3-fluoro-1-(3-fluoro(2-pyridyl))cyclobutyl]methyl}amino-5-phenylpyrimidin-4-yl](2-methoxyethyl)amine] | D (D=>20 uM) |
| CN(C)c1nc(NC[C@]2(c3ncccc3F)C[C@H](F)C2)ncc1-c1ccccc1 [[2-({[3-fluoro-1-(3-fluoro(2-pyridyl))cyclobutyl]methyl}amino-5-phenylpyrimidin-4-yl]dimethylamine] | D (D=>20 uM) |
| CN(C(=O)c1cnc(NCC2(c3ncccc3F)CCC2)nc1)c1nccs1 [[2-({[(3-fluoro(2-pyridyl))cyclobutyl)]methyl}amino) pyrimidin-5-yl]-N-methyl-N-(1,3-thiazol-2-yl)carboxamide] | D (D=>20 uM) |
| Cn1nccc1NC(=O)c1cnc(NCC2(c3ncccc3F)CCC2)nc1 [[2-({[(3-fluoro(2-pyridyl))cyclobutyl]methyl)amino)pyrimidin-5-yl]-N-(1-methylpyrazol-5-yl)carboxamide] | D (D=>20 uM) |
| O=C(NCCO)c1cnc(NCC2(c3ncccc3F)CCC2)nc1 [[2-({[(3-fluoro(2-pyridyl))cyclobutyl]methyl}amino)pyrimdin-5-yl]-N-(2-hydroxyethyl)carboxamide] | D (D=>20 uM) |
| O=C(Nc1ccccc1)c1ccnc(NCC2(c3ncccc3F)CCC2)n1 [[2-({[(3-fluoro(2-pyridyl))cyclobutyl]methyl}amino)pyrimidin-4-yl]-N-benzamide] | D (D=>20 uM) |
| CN(C(=O)c1ccnc(NCC2(c3ncccc3F)CCC2)n1)c1ccccc1 [[2-({[(3-fluoro(2-pyridyl))cyclobutyl]methyl}amino)pyrimidin-4-yl]-N-methyl-N-benzamide] | D (D=>20 uM) |
| O=C(Nc1nncs1)c1cnc(NCC2(c3ncccc3F)CCC2)nc1 [[2-({[(3-fluoro(2-pyridyl))cyclobutyl]methyl}amino)pyrimidin-5-yl]-N-(1,3,4-thiadiazol-2-yl)carboxamide] | B (B=1-10 uM) |
| O=C(Nc1nccs1)c1cnc(NCC2(c3ncccc3F)CCC2)nc1 [[2-({[(3-fluoro(2-pyridyl))cyclobutyl]methyl}amino)pyrimidin-5-yl]-N-(1,3-thiazol-2-yl)carboxamide] | B (B=1-10 uM) |
| O=C(Nc1ccccc1F)c1cnc(NCC2(c3ncccc3F)CCC2)nc1 [[2-({[(3-fluoro(2-pyridyl))cyclobutyl]methyl}amino)pyrimidin-5-yl]-N-(2-fluorophenyl)carboxamide] | D (D=>20 uM) |
| O=C(Nc1cccc(F)c1)c1cnc(NCC2(c3ncccc3F)CCC2)nc1 [[2-({[(3-fluoro(2-pyridyl))cyclobutyl]methyl}amino)pyrimidin-5-yl]-N-(3-fluorophenyl)carboxamide] | D (D=>20 uM) |
| Cc1cc(NC(=O)c2cnc(NCC3(c4ncccc4F)CCC3)nc2)[nH]n1 [[2-({[(3-fluoro(2-pyridyl))cyclobutyl]methyl}amino)pyrimidin-5-yl]-N-(3-methylpyrazol-5-yl)carboxamide] | D (D=>20 uM) |
| O=C(Nc1cccnc1)c1cnc(NCC2(c3ncccc3F)CCC2)nc1 [[2-({[(3-fluoro(2-pyridyl))cyclobutyl]methyl}amino)pyrimidin-5-yl]-N-(3-pyridyl)carboxamide] | C (C=10-20 uM) |
| O=C(Nc1ccc(F)cc1)c1cnc(NCC2(c3ncccc3F)CCC2)nc1 [[2-({[(3-fluoro(2-pyridyl))cyclobutyl]methyl}amino)pyrimidin-5-yl]-N-(4-fluorophenyl)carboxamide] | D (D=>20 uM) |
| O=C(Nc1ccncc1)c1cnc(NCC2(c3ncccc3F)CCC2)nc1 [[2-({[(3-fluoro(2-pyridyl))cyclobutyl]methyl}amino)pyrimidin-5-yl]-N-(4-pyridyl)carboxamide] | B (B=1-10 uM) |
